Values quoted from earlier work in patent publication US20240100117A1, “NUTRITION-BASED METHOD FOR MANAGING ANIMAL BEHAVIOR” (Morgenstern & Associates, LLC, priority 2022, published 2024).

How the values were obtained:
[1] = tested on: conversion of 5-HTP to serotonin; settings: supplementation, primate animal models
[2] = general reference values; at room temperature

For Cc1ncc(CO)c(CO)c1O [vitamin B6, pyridoxine], the “conversion of 5-HTP to serotonin” value [1] is given as “increased the conversion of 5-HTP to serotonin”.

In the case of OCC(O)CO [glycerin], the viscosity [2] is given as “about 950 cP”.

For O [water], the viscosity [2] is listed as “about 1 cP”.
